# Laboratory results taken from patent US8895733B2 (Novartis AG, priority 2010, dated 2014).
# pIC50: −log10 of the molar value.
# Target: T1, Nav 1.7 (Homo sapiens, UniProt Q15858)
# T1 construct: expressed in transfected cells
# Assay: Whole-cell voltage clamp electrophysiology, automated patch clamp (marker c in Table of Examples)
# Type: cell-based
# Conditions: marker c = Automated patch clamp data; read-out: Nav 1.7 activity
# Description: a.IonWork Quattro data, b=Manual patch clamp data, c=Automated patch clamp data M=Method
# Whole-Cell Voltage Clamp Electrophysiology Assay
# Patch-clamp electrophysiology is considered the gold standard technique for investigation of ion channel function and pharmacology. Using this method, sodium channel currents can be measured in cells, which stably (or transiently) express the sodium channel subtype of interest. Application of compounds during such experiments provides a functional measure of the activity and potency of compounds affecting the ion channel of interest.
# Electrophysiological studies can be performed using automated or manual patch-clamp techniques. Automated patch-clamp instruments suitable for this work include the Ion Works HT (MDS), Ion Works Quattro (MDS), PatchLiner (Nanion technologies), Port-A-Patch (Nanion technologies), QPatch (Sophion) or any other suitable platform.
# For recording in automated patch-clamp instruments, cells expressing the voltage-gated sodium channel subtype of interest are dispensed in appropriate chips (plates with more than one recording chambers each containing one or more apertures to generate whole-cell patches), as provided by the manufacturer. Typically, the whole-cell perforated patch configuration is used for probing the pharmacology of compounds in automated patch-clamp electrophysiology on sodium channels. Extracellular and intracellular buffers for such experiments are composed according to the literature, or according to the instructions provided by the manufacturer of the instruments. Test solutions, which contain the compounds to be tested, are applied to the cells expressing the sodium channel of interest by a pipetting system, typically integrated into the robots.
# A suitable voltage stimulus protocol is used to activate voltage-gated sodium channel proteins of interest. A typical stimulus protocol may consist of sweeps of sequential voltage pulses starting from a holding potential (i.e. −65 mV), to a more positive and depolarising test pulse potential (i.e. −10 mV) and finally to a more negative and hyperpolarising potential (i.e. −100 mV). According to the biophysics of the voltage-gated ion channel of interest and interest in channel configuration the voltages and durations of the pulses as well as the overall frequency of sweeps applied might vary. Accordingly, a stimulus protocol was designed to assess compounds due to their potential to block NaV1.7 channels primarily in inactivated state. Selectivity over other voltage-gated sodium channel members was assessed by protocols that reflect the native function of the channels (i.e. heart rate or firing of neurons).
# T1 sequence (Q15858 whole entry): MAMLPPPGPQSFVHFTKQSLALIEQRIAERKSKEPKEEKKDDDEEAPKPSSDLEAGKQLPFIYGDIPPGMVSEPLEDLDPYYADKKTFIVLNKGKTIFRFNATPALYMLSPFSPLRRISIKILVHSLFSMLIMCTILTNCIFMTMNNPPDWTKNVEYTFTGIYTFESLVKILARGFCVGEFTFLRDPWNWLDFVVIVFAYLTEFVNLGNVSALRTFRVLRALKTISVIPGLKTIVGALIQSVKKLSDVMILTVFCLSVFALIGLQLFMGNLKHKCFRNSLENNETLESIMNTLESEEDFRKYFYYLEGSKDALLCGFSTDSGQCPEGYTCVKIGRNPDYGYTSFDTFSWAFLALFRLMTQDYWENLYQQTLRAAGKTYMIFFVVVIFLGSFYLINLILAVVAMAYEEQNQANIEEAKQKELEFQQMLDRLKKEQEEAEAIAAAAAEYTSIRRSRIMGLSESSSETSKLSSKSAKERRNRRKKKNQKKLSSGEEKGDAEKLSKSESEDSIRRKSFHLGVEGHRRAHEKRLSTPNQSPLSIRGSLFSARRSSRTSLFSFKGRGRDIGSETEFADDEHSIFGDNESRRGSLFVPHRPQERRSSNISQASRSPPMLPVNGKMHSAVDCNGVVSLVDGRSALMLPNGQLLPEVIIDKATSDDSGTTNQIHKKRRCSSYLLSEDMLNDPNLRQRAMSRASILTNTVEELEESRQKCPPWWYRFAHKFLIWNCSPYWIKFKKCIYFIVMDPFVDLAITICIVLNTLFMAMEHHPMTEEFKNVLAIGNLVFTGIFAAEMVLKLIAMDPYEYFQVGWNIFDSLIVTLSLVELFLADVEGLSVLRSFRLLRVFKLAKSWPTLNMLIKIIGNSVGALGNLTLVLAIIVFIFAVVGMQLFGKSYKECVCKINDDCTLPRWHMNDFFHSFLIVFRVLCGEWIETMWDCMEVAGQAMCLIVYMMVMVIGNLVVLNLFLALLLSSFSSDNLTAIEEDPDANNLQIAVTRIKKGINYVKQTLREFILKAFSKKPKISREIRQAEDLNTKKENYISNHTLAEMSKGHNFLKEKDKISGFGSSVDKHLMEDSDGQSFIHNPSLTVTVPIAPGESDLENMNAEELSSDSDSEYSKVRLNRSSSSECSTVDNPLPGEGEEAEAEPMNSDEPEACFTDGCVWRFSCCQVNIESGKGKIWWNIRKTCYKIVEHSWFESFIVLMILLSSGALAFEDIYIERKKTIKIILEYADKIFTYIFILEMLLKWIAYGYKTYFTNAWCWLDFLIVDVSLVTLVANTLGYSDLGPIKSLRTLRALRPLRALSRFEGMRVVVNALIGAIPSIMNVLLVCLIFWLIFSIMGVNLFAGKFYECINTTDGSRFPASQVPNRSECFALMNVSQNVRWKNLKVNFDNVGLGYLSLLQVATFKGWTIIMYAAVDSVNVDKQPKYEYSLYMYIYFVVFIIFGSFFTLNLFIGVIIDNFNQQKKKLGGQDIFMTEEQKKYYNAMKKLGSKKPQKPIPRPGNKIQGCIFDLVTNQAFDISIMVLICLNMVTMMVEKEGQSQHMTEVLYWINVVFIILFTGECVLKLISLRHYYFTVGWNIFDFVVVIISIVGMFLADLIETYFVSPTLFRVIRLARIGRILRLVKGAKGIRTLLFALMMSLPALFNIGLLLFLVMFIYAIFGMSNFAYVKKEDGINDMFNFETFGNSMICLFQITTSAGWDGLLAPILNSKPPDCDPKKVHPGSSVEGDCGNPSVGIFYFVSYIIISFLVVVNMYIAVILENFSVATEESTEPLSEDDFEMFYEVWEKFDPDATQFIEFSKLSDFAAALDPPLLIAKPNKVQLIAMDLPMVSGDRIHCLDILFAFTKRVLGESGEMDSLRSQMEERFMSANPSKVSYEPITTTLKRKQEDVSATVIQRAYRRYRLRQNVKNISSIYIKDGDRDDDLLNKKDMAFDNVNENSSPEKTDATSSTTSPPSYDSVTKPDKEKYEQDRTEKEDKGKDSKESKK
row,Compound,pIC50
1,"Nc1nc(Nc2cccc(F)c2)nc(-c2noc(C(=O)N3CCCC3)n2)n1 [Example 227, 2-N-(3-fluorophenyl)-6-{5-[(pyrrolidin-1-yl)carbonyl]-1,2,4-oxadiazol-3-yl}-1,3,5-triazine-2,4-diamine]",6.62
2,"CN(c1ccccc1)c1nc(N)nc(-c2noc(N3C[C@@H]4[C@@H](COCC(F)(F)F)[C@@H]4C3)n2)n1 [Example 387, 2-N-methyl-2-N-phenyl-6-{5-[6-[(2,2,2-trifluoroethoxy)methyl]-3-azabicyclo[3.1.0]hexan-3-yl]-1,2,4-oxadiazol-3-yl}-1,3,5-triazine-2,4-diamine]",5.85
3,"Nc1nc(Nc2ccccc2)nc(-c2noc(-c3ccc(OCCC(F)(F)F)nc3)n2)n1 [Example 363, 2-N-phenyl-6-{5-[6-(3,3,3-trifluoropropoxy)pyridin-3-yl]-1,2,4-oxadiazol-3-yl}-1,3,5-triazine-2,4-diamine]",8.15
4,"Nc1nc(Nc2ccccc2)nc(-c2noc(N3C[C@@H]4[C@@H](COCCC(F)(F)F)[C@@H]4C3)n2)n1 [Example 394, 2-N-phenyl-6-{5-[6-[(3,3,3-trifluoropropoxy)methyl]-3-azabicyclo[3.1.0]hexan-3-yl]-1,2,4-oxadiazol-3-yl}-1,3,5-triazine-2,4-diamine]",6.18
5,"CN(c1ccccc1)c1nc(N)nc(-c2noc(N3CC(OCC(F)(F)F)C3)n2)n1 [Example 494, 2-N-methyl-2-N-phenyl-6-{5-[3-(2,2,2-trifluoroethoxy)azetidin-1-yl]-1,2,4-oxadiazol-3-yl}-1,3,5-triazine-2,4-diamine]",5.70
6,"CN(c1ccccc1)c1nc(N)nc(-c2noc(N3CC(COCCC(F)(F)F)C3)n2)n1 [Example 496, 2-N-methyl-2-N-phenyl-6-(5-{3-[(3,3,3-trifluoropropoxy)methyl]azetidin-1-yl}-1,2,4-oxadiazol-3-yl)-1,3,5-triazine-2,4-diamine]",5.91
7,"Nc1nc(Nc2cccc(F)c2)nc(-c2noc(C(=O)NC3CCc4ccccc43)n2)n1 (stereo not shown) [Example 226, 3-{4-amino-6-[(3-fluorophenyl)amino]-1,3,5-triazin-2-yl}-N-(2,3-dihydro-1H-inden-1-yl)-1,2,4-oxadiazole-5-carboxamide]",5.47
8,"CC(C)OC1CN(c2nc(-c3nc(N)nc(N(C)c4ccccc4)n3)no2)C1 [Example 492, 6-[5-(3-Isopropoxyazetidin-1-yl)-[1,2,4]oxadiazol-3-yl]-N-methyl-N-phenyl-[1,3,5]triazine-2,4-diamine]",< 5.09
9,"Nc1nc(Nc2ccccc2)nc(-c2noc(C3CCN(S(=O)(=O)C4CC4)CC3)n2)n1 [Example 513, 6-{5-[1-(cyclopropanesulfonyl)piperidin-4-yl]-1,2,4-oxadiazol-3-yl}-2-N-phenyl-1,3,5-triazine-2,4-diamine]",6.20
10,"CCCS(=O)(=O)N1CCC(c2nc(-c3nc(N)nc(N(C)c4ccccc4)n3)no2)C1 (stereo not shown) [Example 200, 2-N-methyl-2-N-phenyl-6-{5-[1-(propane-1-sulfonyl)pyrrolidin-3-yl]-1,2,4-oxadiazol-3-yl}-1,3,5-triazine-2,4-diamine]",5.07
11,"CN(c1ccccc1)c1nc(N)nc(-c2noc(C3CCN(S(=O)(=O)C4CCCC4)CC3)n2)n1 [Example 509, 6-{5-[1-(cyclopentanesulfonyl)piperidin-4-yl]-1,2,4-oxadiazol-3-yl}-2-N-methyl-2-N-phenyl-1,3,5-triazine-2,4-diamine]",5.96
12,"CC(C)OC[C@@H]1[C@H]2CN(c3nc(-c4nc(N)nc(N(C)c5ccccc5)n4)no3)C[C@@H]12 [Example 397, 2-N-methyl-2-N-phenyl-6-{5-[6-[(propan-2-yloxy)methyl]-3-azabicyclo[3.1.0]hexan-3-yl]-1,2,4-oxadiazol-3-yl}-1,3,5-triazine-2,4-diamine]",5.40
13,"Nc1nc(Nc2ccccc2)nc(-c2noc(N3CCC(COCC4CC4)CC3)n2)n1 [Example 214, 6-(5-{4-[(cyclopropylmethoxy)methyl]piperidin-1-yl}-1,2,4-oxadiazol-3-yl)-2-N-phenyl-1,3,5-triazine-2,4-diamine]",6.63
14,"CC(C)[S+]([O-])C1CCN(c2nc(-c3nc(N)nc(N(C)c4ccccc4)n3)no2)CC1 (stereo not shown) [Example 368, 2-N-methyl-2-N-phenyl-6-{5-[4-(propane-2-sulfinyl)piperidin-1-yl]-1,2,4-oxadiazol-3-yl}-1,3,5-triazine-2,4-diamine]",5.17

# Results, then the compound that gave them:
row,pIC50,Compound
1,5.14,"CN(c1ccccc1)c1nc(N)nc(-c2noc(-c3ncccc3C(=O)NC3CCC3)n2)n1 [Example 371, 2-(3-{4-amino-6-[methyl(phenyl)amino]-1,3,5-triazin-2-yl}-1,2,4-oxadiazol-5-yl)-N-cyclobutylpyridine-3-carboxamide]"
2,5.64,"CN(c1ccccc1)c1nc(N)nc(-c2noc(-c3ccc(C(F)(F)F)cn3)n2)n1 [Example 420, 2-N-methyl-2-N-phenyl-6-{5-[5-(trifluoromethyl)pyridin-2-yl]-1,2,4-oxadiazol-3-yl}-1,3,5-triazine-2,4-diamine]"
3,6.25,"COc1cccc(-c2nc(-c3nc(N)nc(N(C)c4ccccc4)n3)no2)n1 [Example 415, 6-[5-(6-methoxypyridin-2-yl)-1,2,4-oxadiazol-3-yl]-2-N-methyl-2-N-phenyl-1,3,5-triazine-2,4-diamine]"
4,5.94,"CN(c1ccccc1)c1nc(N)nc(-c2noc(-c3cccnn3)n2)n1 [Example 479, 2-N-methyl-2-N-phenyl-6-[5-(pyridazin-3-yl)-1,2,4-oxadiazol-3-yl]-1,3,5-triazine-2,4-diamine]"
5,5.97,"CN(c1ccccc1)c1nc(N)nc(-c2noc(-c3ccc(C(=O)NC4CCC4)nc3)n2)n1 [Example 286, 5-(3-{4-amino-6-[methyl(phenyl)amino]-1,3,5-triazin-2-yl}-1,2,4-oxadiazol-5-yl)-N-cyclobutylpyridine-2-carboxamide]"
6,6.51,"CN(c1ccccc1)c1nc(N)nc(-c2noc(-c3ccc([S+]([O-])CC4CC4)nc3)n2)n1 (stereo not shown) [Example 456, 6-{5-[6-(cyclopropylmethane)sulfinylpyridin-3-yl]-1,2,4-oxadiazol-3-yl}-2-N-methyl-2-N-phenyl-1,3,5-triazine-2,4-diamine]"
7,6.97,"CN(c1ccccc1)c1nc(N)nc(-c2noc(-c3ccc4c(c3)CCO4)n2)n1 [Example 339, 6-[5-(2,3-dihydro-1-benzofuran-5-yl)-1,2,4-oxadiazol-3-yl]-2-N-methyl-2-N-phenyl-1,3,5-triazine-2,4-diamine]"

# Same assay, conditions: marker c: Automated patch clamp data; read-out: Nav 1.7 activity
row,Compound,pIC50
1,"CN(c1ccccc1)c1nc(N)nc(-c2noc(C3C[C@H]4CC[C@@H](C3)N4CCC(F)(F)F)n2)n1 (mixture of isomers) [Example 145, N-Methyl-N-phenyl-6-{5-[(1R,3R,5S)-8-(3,3,3-trifluoro-propyl)-8-aza-bicyclo[3.2.1]oct-3-yl]-[1,2,4]oxadiazol-3-yl}-[1,3,5]triazine-2,4-diamine]",5.94
2,"Nc1nc(Nc2cccc(F)c2)nc(-c2noc(-c3ccc(OCC4CC4)nc3)n2)n1 [Example 136, 6-{5-[6-(cyclopropylmethoxy)pyridin-3-yl]-1,2,4-oxadiazol-3-yl}-2-N-(3-fluorophenyl)-1,3,5-triazine-2,4-diamine]",7.19
3,"FC(F)(F)CNc1nc(Nc2ccccc2)nc(-c2noc(-c3ccc(OCC(F)(F)F)nc3)n2)n1 [Example 151, 2-N-phenyl-6-{5-[6-(2,2,2-trifluoroethoxy)pyridin-3-yl]-1,2,4-oxadiazol-3-yl}-4-N-(2,2,2-trifluoroethyl)-1,3,5-triazine-2,4-diamine]",5.83
4,"CCCS(=O)(=O)N1CCC(c2nc(-c3nc(N)nc(N(C)c4ccccc4)n3)no2)CC1 [Example 168, 2-N-methyl-2-N-phenyl-6-{5-[1 - (propane-1-sulfonyl)piperidin-4-yl]-1,2,4-oxadiazol-3-yl}-1,3,5-triazine-2,4-diamine]",5.83

# Second part, the compound after the results:
row,pIC50,Compound
1,6.03,"COc1ncccc1-c1nc(-c2nc(N)nc(N(C)c3ccccc3)n2)no1 [Example 76, 6-[5-(2-Methoxy-pyridin-3-yl)-[1,2,4]oxadiazol-3-yl]-N-methyl-N-phenyl-[1,3,5]triazine-2,4-diamine]"
2,7.17,"CCN(c1ccccc1)c1nc(N)nc(-c2noc(-c3c(F)cccc3OC)n2)n1 [Example 191, 2-N-ethyl-6-[5-(2-fluoro-6-methoxyphenyl)-1,2,4-oxadiazol-3-yl]-2-N-phenyl-1,3,5-triazine-2,4-diamine]"
3,7.21,"COc1ccc(-c2nc(-c3nc(N)nc(N(C)c4cccc(C)c4)n3)no2)cc1 [Example 184, 6-[5-(4-methoxyphenyl)-1,2,4-oxadiazol-3-yl]-2-N-methyl-2-N-(3-methylphenyl)-1,3,5-triazine-2,4-diamine]"
